Assay results reported in article PMC8729770, “In Vitro Evaluation of Antimicrobial Peptides from the Black Soldier Fly (Hermetia Illucens) against a Selection of Human Pathogens” (Microbiology Spectrum, 2022).
Several values for one entry are separate records, joined by “and”; a condition that tells them apart may be missing. Identical values can stand only once. Like-named read-outs stand apart in the source and are kept apart here. Ends that are not written are not given here. Peptide text beside a SMILES is read from it.

Assays:
[1] = Cytotoxicity screening of the peptide library; type: cell-based, human; conditions: human; both repeats; read-out: IC50 cell toxicity MRC5-SV2
Procedure: (§1) To determine early signs of peptide toxicity, the library was tested against the MRC5-SV2 cell line of human, embryonic lung fibroblasts (Sigma-Aldrich). Peptides were serially diluted in 96-well plates as described earlier at concentrations ranging from 64 μM to 0.25 μM for the first screening, and from 32 μM to 0.016 μM for the independent repeat. Tamoxifen (Sigma-Aldrich) was included as a reference compound. After preparation of the test plates, cell suspension (190 μL) of 1.5 × 10^5 cells/mL in complete minimum essential medium (Gibco) was added to the peptides. Plates were incubated for 72 h at 37°C in a 5% CO2 incubator (Binder). Afterwards, 50 μL of a 0.01% (wt/vol) resazurin (Sigma-Aldrich) solution was added to the wells to detect cell viability.

[2] = tested on: P. aeruginosa ATCC 9027; type: cell-based, Pseudomonas aeruginosa; conditions: for IC50: MHB, 37°C, resazurin; for IC50 / MIC P. aeruginosa ATCC 9027: 16 h; for MIC P. aeruginosa ATCC 9027: determined visually; for MBC P. aeruginosa ATCC 9027: plated on MHA, ≥3 log reduction vs growth control
Procedure: (§2) To detect antimicrobial activity of the BSF AMPs, the peptide library underwent screening against a panel of microorganisms, consisting of S. aureus ATCC 6538, E. coli ATCC 8739, P. aeruginosa ATCC 9027, C. albicans B59630, and A. fumigatus B42928. Serial dilutions of the peptides were prepared from the DMSO stock solutions in sterile demineralized water in 96-well plates using an automated liquid-handling workstation (Beckman Coulter Biomek 3000) in end volumes of 10 μL. The final in-plate concentration of DMSO was <1%. Peptide concentrations ranged from 64 μM to 0.25 μM for the first evaluation, and from 32 μM to 0.016 μM for the independent repeat. As references, doxycycline (Sigma-Aldrich; S. aureus, E. coli, P. aeruginosa), flucytosine (Sigma-Aldrich; C. albicans), and econazole (Sigma-Aldrich; A. fumigatus) were used. Suspensions of a starting inoculum of 5 × 10^3 CFU/mL (E. coli, S. aureus, C. albicans, A. fumigatus) and 5 × 10^4 CFU/mL (P. aeruginosa) were prepared in MHB (bacterial species) or RPMI medium (fungal species) and 190 μL was added to the 96-well plates. Plates were incubated for 16 h (E. coli, S. aureus, P. aeruginosa), 24 h (C. albicans), or 48 h (A. fumigatus) at 37°C. After incubation, read-out of the antimicrobial activity was performed using a resazurin assay. Then, 20 μL of a 0.01% (wt/vol) resazurin (Sigma-Aldrich) solution was added to each well and plates were incubated for 15 min (S. aureus), 30 min (E. coli), 45 min (P. aeruginosa), 4 h (C. albicans), or 17 h (A. fumigatus) to allow resazurin reduction to take place. Fluorescence was read using a microplate reader (Telix) at λexcitation = 550 nm and λemission = 590. […] MIC values were determined visually. Medium in the wells with no visual growth was plated on MHA to detect the MBC, defined as ≥3 log reduction compared with the growth control.

[3] = tested on: A. fumigatus B42928; type: cell-based, Aspergillus fumigatus; conditions: RPMI, 48 h, 37°C, resazurin
Procedure: as §2

[4] = tested on: E. coli ATCC 8739; type: cell-based, Escherichia coli; conditions: for IC50: MHB, 37°C, resazurin; for IC50 / MIC E. coli ATCC 8739: 16 h; for MIC E. coli ATCC 8739: determined visually
Procedure: as §2

[5] = tested on: C. albicans B59630; type: cell-based, Candida albicans; conditions: RPMI, 24 h, 37°C, resazurin
Procedure: as §2

[6] = tested on: MRC5-SV2 cell line of human, embryonic lung fibroblasts; assay: Cytotoxicity screening of the peptide library; type: cell-based; conditions: 72 h, 37°C, resazurin fluorescence
Procedure: as §1

[7] = tested on: S. aureus ATCC 6538; type: cell-based, Staphylococcus aureus; conditions: for IC50: MHB, 37°C, resazurin, 50% growth inhibition; for IC50 / MIC S. aureus ATCC 6538: 16 h; for MIC S. aureus ATCC 6538: determined visually; for MBC S. aureus ATCC 6538: wells without visual growth plated on MHA, ≥3 log reduction vs growth control
Procedure: as §2

[8] = repeat 1, first screening 64-0.25 μM
[9] = repeat 2, independent repeat 32-0.016 μM

Compound	IC50 ([2]; repeat 1, 64-0.25 μM) [µM]	MIC P. aeruginosa ATCC 9027 ([2]; repeat 1, 64-0.25 μM)	IC50 ([2]; repeat 2, 32-0.016 μM) [µM]	MIC P. aeruginosa ATCC 9027 ([2]; repeat 2, 32-0.016 μM)	IC50 ([3]; repeat 1, 64-0.25 μM) [µM]	IC50 ([3]; repeat 2, 32-0.016 μM) [µM]	IC50 ([4]; repeat 1, 64-0.25 μM) [µM]	MIC E. coli ATCC 8739 ([4]; repeat 1, 64-0.25 μM) [µM]	IC50 ([4]; repeat 2, 32-0.016 μM) [µM]	MIC E. coli ATCC 8739 ([4]; repeat 2, 32-0.016 μM)	IC50 ([5]; repeat 1, 64-0.25 μM) [µM]	IC50 ([5]; repeat 2, 32-0.016 μM) [µM]	IC50 [6, 8] [µM]	IC50 [6, 9] [µM]	IC50 ([7]; repeat 1, 64-0.25 μM) [µM]	MIC S. aureus ATCC 6538 ([7]; repeat 1, 64-0.25 μM) [µM]	IC50 ([7]; repeat 2, 32-0.016 μM) [µM]	MIC S. aureus ATCC 6538 ([7]; repeat 2, 32-0.016 μM)	other results
CC[C@H](C)[C@H](N)C(=O)N[C@@H](CCCCN)C(=O)N[C@@H](CS)C(=O)N[C@H](C(=O)N1CCC[C@H]1C(=O)N[C@@H](CO)C(=O)N[C@@H](CCC(N)=O)C(=O)N[C@@H](CS)C(=O)N[C@@H](CC(N)=O)C(=O)N[C@@H](CCC(N)=O)C(=O)N[C@H](C(=O)N[C@@H](CS)C(=O)N[C@@H](CCCNC(=N)N)C(=O)N[C@H](C(=O)N[C@@H](CC(C)C)C(=O)NCC(=O)N[C@@H](CCCCN)C(=O)N[C@@H](CCCCN)C(=O)N[C@@H](CS)C(=O)NCC(=O)N[C@@H](Cc1ccc(O)cc1)C(=O)N[C@@H](CS)C(=O)N[C@@H](CCCCN)C(=O)N[C@@H](CC(N)=O)C(=O)N[C@@H](C)C(=O)N[C@@H](CO)C(=O)N[C@H](C(=O)N[C@@H](CS)C(=O)N[C@H](C(=O)N[C@@H](CS)C(=O)N[C@@H](CC(C)C)C(N)=O)C(C)C)[C@@H](C)O)C(C)C)[C@@H](C)CC)C(C)C [Hill-Knot2] (H-IKCVPSQCNQICRVLGKKCGYCKNASTCVCL-NH2; N-terminus assumed)	–	–	–	–	–	–	–	–	–	–	–	–	–	–	–	–	–	–	IC50 [1]: < 32 µM
ATCDLLSPFKVGHAACAAHCIARGKRGGWCDKRAVCNCRK (also: bicyclic or more (positions not given here)) [Hill-Def2b, Defensin with disulfide bridges, counterpart of Hill-Def2a]	> 64	> 32.00 µM and >64.00 µM	> 32	> 64.00 µM and >32.00 µM	> 64	> 32	> 64	> 32.00	> 32	> 64.00 µM and 64.00 µM	> 64	> 32	> 64	> 32	8.5	64.00	13.5	> 32.00 µM and 32.00 µM	concentration for 90% growth inhibition of S. aureus / activity against S. aureus ([7]; library screening, both repeats): 32 µM and 64 µM; MBC S. aureus ATCC 6538 ([7]; repeat 1): static; MBC S. aureus ATCC 6538 ([7]; repeat 2): static
ATCTNWNCRTQCIARGKRGGYCVERNICKCTS [Hill-Def3, Defensin without disulfide bridges]	> 64	> 64.00 µM	> 3	> 32.00 µM	> 64	> 32	> 64	> 64.00	> 32	> 32.00 µM	> 64	> 32	> 64	> 32	> 64	> 64.00	> 32	> 32.00 µM	–
DQSKEPFKPMERPYQRVRDAKIQGITIAQNGPNVLAITRGGLEQ [Hill-Cec6, Cecropin, C-terminal amidation]	> 64	> 32.00 µM	> 32	–	> 64	> 32	> 64	> 32.00	> 32	> 64.00 µM	> 64	> 32	> 64	> 32	> 64	> 64.00	> 32	> 32.00 µM	MBC P. aeruginosa ATCC 9027 ([2]; repeat 1): 16.00 µM; MBC P. aeruginosa ATCC 9027 ([2]; repeat 2): 2.00 µM; MBC E. coli ATCC 8739 ([4]; repeat 2, plated on MHA, ≥3 log reduction vs growth control): 2.00 µM
FNNLPICVEGLAGDIGSILLGVESDIGALAGAIANLALIAGECAAQGEAGAAICA-NH2 (cysteines drawn unpaired) [Hill-Stom1]	–	> 32.00 µM	–	> 64.00 µM	–	–	–	> 32.00	–	> 64.00 µM	–	–	–	–	–	> 64.00	–	> 32.00 µM	IC50 [1]: < 32 µM
LSCLFENQAVSAIACGASCITRKGKRGGWCSNGVCRCTPN [Hill-Def6, Defensin without disulfide bridges]	> 64	> 64.00 µM	> 32	> 32.00 µM	> 64	> 32	> 64	> 64.00	> 32	> 32.00 µM	> 64	> 32	> 64	> 32	> 64	> 64.00	> 32	> 32.00 µM	–
QLPCDYLSGLGFGEDACNTDCIAKGHKSGFCTGLVCRCRTL [Hill-Def8, Defensin without disulfide bridges]	> 64	> 64.00 µM	> 32	> 32.00 µM	> 64	> 32	> 64	> 64.00	> 32	> 32.00 µM	> 64	> 32	> 64	> 32	> 64	> 64.00	> 32	> 32.00 µM	–
TTCDLISGTKIENIACAAHCIAMGHKGGYCNSNLICICR [Hill-Def7, Defensin without disulfide bridges]	> 64	> 64.00 µM	> 32	> 32.00 µM	> 64	> 32	> 64	> 64.00	> 32	> 32.00 µM	> 64	> 32	> 64	> 32	> 64	> 64.00	> 32	> 32.00 µM	–
VTCDLLEPFLGPAPCMIHCIVRFRKRTGYCNSQNVCVCR [Hill-Def1, Defensin without disulfide bridges, C-terminal amidation]	> 64	> 64.00 µM	> 32	> 32.00 µM	> 64	> 32	> 64	> 64.00	> 32	> 32.00 µM	> 64	> 32	> 64	> 32	> 64	> 64.00	> 32	> 32.00 µM	–
